Legend:
Trypanosoma cruzi [1] = experiment: Trypanocidal activity against Trypanosoma cruzi trypomastigotes; format: functional, organism-based
Trypanosoma cruzi [2] = experiment: Inhibition of Trypanosoma cruzi assessed as inhibition of parasite growth at 100 uM relative to control; format: functional
Trypanosoma cruzi [3] = experiment: Antitrypanosomal activity against Trypanosoma cruzi Tulahuen strain trypomastigotes infected in human MRC5 cells measured after 7 days; format: functional, organism-based; details: MRC5, 168 h
Trypanosoma cruzi [4] = experiment: Antitrypanosomal activity against bloodstream form of Trypanosoma cruzi Y […] measured after 24 hrs by giemsa staining based microscopic analysis; format: functional, organism-based
Trypanosoma cruzi [5] = experiment: Antitrypanosomal activity against of Trypanosoma cruzi Y trypomastigotes measured after 48 hrs by giemsa staining based microscopic analysis; format: functional, organism-based
Trypanosoma cruzi [6] = experiment: Antitrypanosomal activity against of Trypanosoma cruzi amastigotes; format: functional, organism-based
Trypanosoma cruzi [7] = experiment: Antitrypanosomal activity against Trypanosoma cruzi epimastigotes; format: functional, organism-based
Trypanosoma cruzi [8] = experiment: Antitrypanosomal activity against Trypanosoma cruzi Y strain trypomastigotes infected in Swiss albino mouse incubated for 24 hrs; format: functional, organism-based
Cruzipain [9] = target: T1, Cruzipain (Trypanosoma cruzi, UniProt P25779); experiment: Inhibition of Trypanosoma cruzi Cruzain
Cruzipain [10] = target: T1, Cruzipain; experiment: Inhibition of Trypanosoma cruzi Cruzain using Z-Phe-Arg-AMC as flurogenic substrate
Trypanosoma cruzi [11] = experiment: Antitrypanosomal activity against Trypanosoma cruzi Tulahuen LacZ amastigotes infected in human HFF-1 cells incubated for 120 hrs; format: functional, organism-based; details: HFF-1, 120 h
[12] = Inhibition of Trypanosoma cruzi TIM
Trypanosoma cruzi [13] = experiment: Antitrypanosomal activity against Trypanosoma cruzi Tulahuen 2 epimastigotes measured after 5 days; format: functional, organism-based; details: Tulahuen 2, 120 h
Cruzipain [14] = target: T1, Cruzipain; experiment: Inhibition of Trypanosoma cruzi Tulahuen 2 Cruzain using Z-Phe-Arg-AMC as flurogenic substrate at 100 uM by spectrophotometry based analysis relative to control
Trypanosoma cruzi [15] = experiment: Antitrypanosomal activity against Trypanosoma cruzi trypomastigotes; format: functional, organism-based
Trypanosoma cruzi [16] = experiment: Antitrypanosomal activity against Trypanosoma cruzi IRHOD/CO/2008/SN3 epimastigotes; format: functional, organism-based
[17] = Inhibition of Trypanosoma cruzi epimastigotes Fe-SOD by Bradford method
Trypanosoma cruzi [18] = experiment: Antiparasitic activity against Trypanosoma cruzi Tulahuen strain amastigotes; format: functional, organism-based
Trypanosoma cruzi [19] = experiment: Antitrypanosomal activity against of Trypanosoma cruzi Tulahuen strain amastigotes infected in mouse 3T3 cells by alamar blue staining based analysis; format: functional, organism-based; details: NIH3T3
Trypanosoma cruzi [20] = experiment: Inhibition of Trypanosoma cruzi TIM at 100 uM relative to control
Trypanosoma cruzi [21] = experiment: Antitrypanosomal activity against Trypanosoma cruzi Y strain amastigotes incubated for 24 hrs by microscopy analysis; format: functional, organism-based

T1 sequence (P25779 whole entry): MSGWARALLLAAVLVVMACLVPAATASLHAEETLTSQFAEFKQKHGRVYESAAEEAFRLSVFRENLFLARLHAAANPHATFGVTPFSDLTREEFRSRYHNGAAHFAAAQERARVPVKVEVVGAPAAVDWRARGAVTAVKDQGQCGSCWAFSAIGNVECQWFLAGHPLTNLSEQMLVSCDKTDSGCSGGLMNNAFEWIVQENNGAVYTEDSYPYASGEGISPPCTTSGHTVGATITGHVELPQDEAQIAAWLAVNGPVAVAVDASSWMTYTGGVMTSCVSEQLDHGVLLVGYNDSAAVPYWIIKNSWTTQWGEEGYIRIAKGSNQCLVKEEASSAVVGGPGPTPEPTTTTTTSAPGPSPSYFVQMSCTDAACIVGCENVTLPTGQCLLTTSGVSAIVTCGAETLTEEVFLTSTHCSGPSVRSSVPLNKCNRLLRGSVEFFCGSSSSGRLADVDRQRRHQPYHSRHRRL

CCOC(=O)Cc1[nH]c(-c2ccccc2)nc1-c1ccc(C)cc1
IC50 (Trypanosoma cruzi [1]): 51100 nM

CCOC(=O)c1nc2ccc([N+](=O)[O-])cc2n1OC(=O)OC(C)(C)C
inhibition at 100 µM (Trypanosoma cruzi [2]): 61%

Cc1ccc(-c2c[nH]c(NC(=O)N3CCN(c4ccc(C(F)(F)F)cc4[N+](=O)[O-])CC3)n2)cc1
IC50 (Trypanosoma cruzi [3]): 2200 nM

C=C(c1ccccc1OCc1cccc(Cl)c1)n1ccnc1 [CROCONAZOLE]
IC50 (Trypanosoma cruzi [4]): 24000 nM
IC50 (Trypanosoma cruzi [5]): 16000 nM

CN(C)c1ccc(-c2nc(-c3ccccc3)c(-c3ccccc3)[nH]2)cc1
IC50 (Trypanosoma cruzi [6]): 960 nM

c1ccc2c(c1)ccn1c[n+](C3CCCCC3)c(NC3CCCCC3)c21
IC50 (Trypanosoma cruzi [7]): 1020 nM

Cn1cnc([N+](=O)[O-])c1-n1cc(C2CC2)nn1
IC50 (Trypanosoma cruzi [8]): 5400 nM

Cn1c([N+](=O)[O-])cnc1C1=NOC2CCCCC12 (stereo unspecified)
IC50 (Trypanosoma cruzi [7]): 33000 nM

O=C(COc1ccc2ccccc2c1Br)NCCc1nc2cc(Cl)ccc2[nH]1
IC50 (Cruzipain [9]): 590 nM

COc1ccc(-n2c[n+](-c3ccc(OC)cc3)c(Cc3ccccc3)c2-c2ccc(C)cc2)cc1
IC50 (Trypanosoma cruzi [7]): 440 nM

Cc1cccc(OCCNC(=O)n2ccnc2)c1
IC50 (Cruzipain [10]): 1000 nM
IC50 (Trypanosoma cruzi [11]): 1100 nM

CSc1nc2cc(C(=O)Nc3ncc([N+](=O)[O-])s3)c(Cl)cc2n1C
IC50 [12]: 100000 nM

c1ccc2c(c1)cnn1c[n+](C3CCCCC3)c(NC3CCCCC3)c21
IC50 (Trypanosoma cruzi [7]): 1140 nM

Brc1ccc(-c2c[nH]c(-c3ccccn3)n2)cc1
IC50 (Trypanosoma cruzi [3]): 1200 nM

CCCCn1c(-c2ccc(Br)cc2)nc2ccccc21
IC50 (Trypanosoma cruzi [13]): 13300 nM
IC50 (Cruzipain [14]): 55000 nM

Cc1ccc(OCCn2c(CCNC(=O)C3CCCCC3)nc3ccccc32)cc1
IC50 (Cruzipain [9]): 2000 nM
IC50 (Trypanosoma cruzi [7]): 64000 nM

Sc1nc2cc(Cl)ccc2[nH]1
IC50 (Trypanosoma cruzi [1]): 320000 nM

COc1ccc(O)c(-c2nc(C)c(C)[nH]2)c1
IC50 (Trypanosoma cruzi [7]): 10700 nM

c1ccc(-c2nc(-c3cccc4ccccc34)c[nH]2)cc1
IC50 (Trypanosoma cruzi [1]): 35500 nM

CC(C)c1cccc(C(C)C)c1-n1cc[n+](-c2c(C(C)C)cccc2C(C)C)c1
IC50 (Trypanosoma cruzi [7]): 1100 nM

Cn1c([N+](=O)[O-])cnc1-c1c(-c2ccccc2)nc(-c2ccc(Br)cc2)n1O
IC50 (Trypanosoma cruzi [15]): 23900 nM

Cc1ccc2[nH]c(CCNC(=O)COc3ccc4ccccc4c3Br)nc2c1
IC50 (Cruzipain [9]): 610 nM

Oc1cccc2c(NCCc3c[nH]cn3)nnc(Cl)c12
IC50 (Trypanosoma cruzi [16]): 8500 nM
IC50 [17]: 27000 nM

Oc1ccc(-n2c[n+](-c3ccc4ccccc4c3)c(Cc3ccccc3)c2-c2ccc(Cl)cc2)cc1
IC50 (Trypanosoma cruzi [7]): 540 nM

O=C(N[C@@H](Cn1ccnc1)c1ccc(-c2ccc(F)cc2)cc1F)c1ccc(-c2nnc(-c3ccccc3)o2)cc1
IC50 (Trypanosoma cruzi [18]): 0.8 nM

c1ccc(-c2ccc(Cn3cncc3CNc3ccc(-c4nc5ccccc5s4)c(-c4ccccc4)c3)cc2)cc1
IC50 (Trypanosoma cruzi [19]): 20 nM

Cn1c(OC(N)=O)nc2cc(Oc3cccc4ccccc34)c(Cl)cc21
inhibition (Trypanosoma cruzi [20]): 60%

O=C(N[C@@H](Cn1ccnc1)c1ccc(Cl)cc1Cl)c1ccc(-c2nnc(-c3ccccc3)o2)cc1
IC50 (Trypanosoma cruzi [15]): 11000 nM
IC50 (Trypanosoma cruzi [21]): 900 nM

Cc1cc(C)c(-n2cc[n+](-c3c(C)cc(C)cc3C)c2)c(C)c1
IC50 (Trypanosoma cruzi [7]): 2000 nM

Cc1ccccc1OCC(=O)NCCc1nc2ccccc2[nH]1
IC50 (Cruzipain [9]): 1600 nM

Reference: ChEMBL document CHEMBL5244257, “The role of imidazole and benzimidazole heterocycles in Chagas disease: A review” (Eur J Med Chem, 2020)
